Starred links: 1 amine or outer side, 2 acyl side, 3 side chain; linkers in the order of their positions; H or OH if unused. Non-standard residues stand in square brackets, D forms with d. Residues, ends and D or L forms follow the SMILES beside them. ξ: configuration not given here. ξNMeVal(3-OH) = CNC(C(=O)O)C(C)(C)O; NMeF = CN[CH](Cc1ccccc1)C(=O)O; X1 = CCC(C)C(O[*:1])C(=O)[*:2]; NMeV = CN[CH](C(=O)O)C(C)C; Hiv = CC(C)[CH](O)C(=O)O
Experiments:
[1] = tested on: Candida glabrata TIMM 1062; test: MIC by agar dilution method, casitone agar; format: cell-based; details: Table 5
Method: (§1) The minimum inhibitory concentration (MIC) of each antibiotic against various fungi was determined by the agar dilution method using casitone agar medium (2.0% glucose, 0.9% bacto-casitone, 1.0% yeast extract, 0.1% KH2 PO4, 0.1% Na2 HPO4, 1.0% sodium citrate, 2.0% agar: concentrations are all by w/v).
(§2) Each minimum growth inhibitory concentration was determined after culturing at 27° C. for 4 days.

[2] = tested on: Cryptococcus neoformans TIMM 0354; test: MIC by agar dilution method, casitone agar; format: cell-based; details: Table 5
Method: as §1, §2

[3] = tested on: Candida albicans TIMM 0136; test: MIC by agar dilution method, casitone agar; format: cell-based; details: Table 5
Method: as §1, with “The antibiotics R106 of the present invention are active against various fungi including pathogenic fungi. The” for “The”

[4] = tested on: Candida albicans TIMM 0171; test: MIC by agar dilution method, casitone agar; format: cell-based; details: Table 5
Method: as §1, with “The antibiotics R106 of the present invention are active against various fungi including pathogenic fungi. The” for “The”

Candida kefyr TIMM 0301 = test: MIC by agar dilution method, casitone agar; format: cell-based; details: Table 5
Method: as §1, with “The antibiotics R106 of the present invention are active against various fungi including pathogenic fungi. The” for “The”

[5] = tested on: Candida albicans TIMM 1768; test: MIC by agar dilution method, casitone agar; format: cell-based; details: Table 5
Method: as §1, with “The antibiotics R106 of the present invention are active against various fungi including pathogenic fungi. The” for “The”

[6] = 50% lethal dose (LD50) in mice; format: in vivo
Source text: All of the antibiotics R106 show low toxicity. The results of 50% lethal dose (LD50) obtained when each of representative compounds of the present invention was given to mice intravenously, intraperitoneally and orally are shown in Table 7.

Row | Compound | minimum inhibitory concentration (MIC) [1] | minimum inhibitory concentration (MIC) [2] | minimum inhibitory concentration (MIC) [3] | minimum inhibitory concentration (MIC) [4] | minimum inhibitory concentration (MIC) (Candida kefyr TIMM 0301) | minimum inhibitory concentration (MIC) [5] | LD50 ([6]; i.p.) [mg/kg] | LD50 ([6]; i.v.) [mg/kg] | LD50 ([6]; p.o.) [mg/kg]
1 | CCC(C)C1NC(=O)C2CCCN2C(=O)C(Cc2ccccc2)N(C)C(=O)C(Cc2ccccc2)NC(=O)C(C(C)C)N(C)C(=O)C(C(C)C)OC(=O)C(C(C)(C)O)N(C)C(=O)C(CC(C)C)NC(=O)C(C(C)C)N(C)C1=O (stereo not drawn) [Compound 2] (cyclo([ξNMeVal(3-OH)][Hiv][NMeV]F[NMeF]PI[NMeV]L); configuration not given here) | 0.20 | 1.56 | 0.10 | 0.10 | 0.20 | 0.78 | > 200 | > 100 | > 200
2 | CCC(C)C1OC(=O)C(C(C)(C)O)N(C)C(=O)C(CC(C)C)NC(=O)C(C(C)C)N(C)C(=O)C(CC(C)C)NC(=O)C2CCCN2C(=O)C(Cc2ccccc2)N(C)C(=O)C(Cc2ccccc2)NC(=O)C(C(C)C)N(C)C1=O (stereo not drawn) [Compound 9] (cyclo([ξNMeVal(3-OH)][X1][NMeV]F[NMeF]PL[NMeV]L); configuration not given here) | 0.39 | 25 | ≤ 0.05 | ≤ 0.05 | 0.20 | 0.20 | > 200 | > 100 | > 200

Source: patent US5057493A, “Novel antibiotics R106” (priority 1988, dated 1991)
